Each molecule was assayed against GST-Bcl-2 (Homo sapiens (Human), UniProt P10415) (assay: Time Resolved-Fluorescence Resonance Energy Transfer (TR-FRET) Bcl-2 binding assay). Conditions: not given.
Protocol: Determination of the utility of compounds having Formula (I) as binders to and inhibitors of anti-apoptotic Bcl-2 proteins was performed using the Time Resolved-Fluorescence Resonance Energy Transfer (TR-FRET) Assay. Tb-anti-GST antibody was purchased from Invitrogen (Catalog No. PV4216).
(§1) Representative compounds were serially diluted in dimethyl sulfoxide (DMSO) starting at 50 μM (2× starting concentration; 10% DMSO) and 10 μL were transferred into a 384-well plate. The samples are then mixed on a shaker for 1 minute and incubated for an additional 3 hours at room temperature. For each assay, the probe/antibody and protein/probe/antibody were included on each assay plate as negative and positive controls, respectively. Fluorescence was measured on the Envision (Perkin Elmer) using a 340/35 nm excitation filter and 520/525 (F-Bak peptide) and 495/510 nm (Tb-labeled anti-Histidine antibody) emission filters.
as §1, with “The” for “Representative compounds were serially diluted in dimethyl sulfoxide (DMSO) starting at 50 μM (2× starting concentration; 10% DMSO) and 10 μL were transferred into a 384-well plate. The”, “were” for “are”
The inhibition constant (Ki) is the dissociation constant of an enzyme-inhibitor complex or a protein/small molecule complex, wherein the small molecule is inhibiting binding of one protein to another protein. So a large Ki value indicates a low binding affinity and a small Ki value indicates a high binding affinity.

Sequence of GST-Bcl-2 (P10415 whole entry): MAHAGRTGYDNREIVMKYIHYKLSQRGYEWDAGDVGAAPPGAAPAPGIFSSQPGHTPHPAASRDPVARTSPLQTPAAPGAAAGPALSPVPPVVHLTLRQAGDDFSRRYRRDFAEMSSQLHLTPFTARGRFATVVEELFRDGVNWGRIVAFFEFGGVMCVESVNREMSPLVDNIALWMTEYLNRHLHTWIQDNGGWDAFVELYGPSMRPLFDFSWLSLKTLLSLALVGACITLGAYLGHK

Compound	Ki [nM]
CC1(C)CCC(CN2CCN(c3ccc(C(=O)NS(=O)(=O)c4ccc(O[C@H]5CC[C@H](N6CCOCC6)CC5)c([N+](=O)[O-])c4)c(Oc4cc5cc[nH]c5cc4F)c3)CC2)=C(c2ccc(Cl)cc2)C1 [Example 311, Trans-4-(4-{[2-(4-chlorophenyl)-4,4-dimethylcyclohex-1-en-1-yl]methyl}piperazin-1-yl)-2-[(6-fluoro-1H-indol-5-yl)oxy]-N-({4-[(4-morpholin-4-ylcyclohexyl)oxy]-3-nitrophenyl}sulfonyl)benzamide]	0.185

Same assay, conditions: GST-Bcl-2 1 nM, F-Bak peptide probe 100 nM, Tb-anti-GST antibody 1 nM; Ki by Wang's equation

Compound	Ki [nM]
CC1(C)CCC(CN2CCN(c3ccc(C(=O)NS(=O)(=O)c4ccc(NCCCN5CCOCC5)c([N+](=O)[O-])c4)c(Oc4ccc(F)cc4Cl)c3)CC2)=C(c2ccc(Cl)cc2)C1 [Example 120, 2-(2-chloro-4-fluorophenoxy)-4-(4-{[2-(4-chlorophenyl)-4,4-dimethylcyclohex-1-en-1-yl]methyl}piperazin-1-yl)-N-({4-[(3-morpholin-4-ylpropyl)amino]-3-nitrophenyl}sulfonyl)benzamide]	0.214
CN(C)CC(=O)N1CCC(F)(COc2ncc(S(=O)(=O)NC(=O)c3ccc(N4CCN(CC5=C(c6ccc(Cl)cc6)CC(C)(C)CC5)CC4)cc3Oc3cnc(N)c(Cl)c3)cc2Cl)CC1 [Example 393, 2-[(6-amino-5-chloropyridin-3-yl)oxy]-N-[(5-chloro-6-{[1-(N,N-dimethylglycyl)-4-fluoropiperidin-4-yl]methoxy}pyridin-3-yl)sulfonyl]-4-(4-{[2-(4-chlorophenyl)-4,4-dimethylcyclohex-1-en-1-yl]methyl}piperazin-1-yl)benzamide]	< 0.01
CC1(C)CCC(CN2CCN(c3ccc(C(=O)NS(=O)(=O)c4ccc(NC5CCN(C6CCOCC6)CC5)c([N+](=O)[O-])c4)c(Oc4cccc(F)c4F)c3)CC2)=C(c2ccc(Cl)cc2)C1 [Example 49, 4-(4-((2-(4-chlorophenyl)-4,4-dimethylcyclohex-1-en-1-yl)methyl)piperazin-1-yl)-2-(2,3-difluorophenoxy)-N-((3-nitro-4-((1-tetrahydro-2H-pyran-4-ylpiperidin-4-yl)amino)phenyl)sulfonyl)benzamide]	0.062
CN(C)CCOc1ccc(-c2ccc(Cl)cc2)c(CN2CCN(c3ccc(C(=O)NS(=O)(=O)c4ccc(NC5CCN(C)CC5)c([N+](=O)[O-])c4)c(Oc4cccc(Cl)c4)c3)CC2)c1 [Example 37, 4-(4-((4′-chloro-4-(2-(dimethylamino)ethoxy)-1,1′-biphenyl-2-yl)methyl)piperazin-1-yl)-2-(3-chlorophenoxy)-N-((4-((1-methylpiperidin-4-yl)amino)-3-nitrophenyl)sulfonyl)benzamide]	0.005
CN1CCC(Nc2ccc(S(=O)(=O)NC(=O)c3ccc(N4CCN(CC5=C(c6ccc(Cl)cc6)CC(C)(C)CC5)CC4)cc3Oc3cccc(C(F)(F)F)c3)cc2[N+](=O)[O-])CC1 [Example 57, 4-(4-((2-(4-chlorophenyl)-4,4-dimethylcyclohex-1-en-1-yl)methyl)piperazin-1-yl)-N-((4-((1-methylpiperidin-4-yl)amino)-3-nitrophenyl)sulfonyl)-2-(3-(trifluoromethyl)phenoxy)benzamide]	0.147
CN(C)CCCNc1ccc(S(=O)(=O)NC(=O)c2ccc(N3CCN(Cc4ccccc4-c4ccc(Cl)cc4)CC3)cc2Oc2ccccc2Cl)cc1[N+](=O)[O-] [Example 11, 4-(4-((4′-chloro-1,1′-biphenyl-2-yl)methyl)piperazin-1-yl)-2-(2-chlorophenoxy)-N-((4-((3-(dimethylamino)propyl)amino)-3-nitrophenyl)sulfonyl)benzamide]	0.171
C=CCN1CCC(Nc2ccc(S(=O)(=O)NC(=O)c3ccc(N4CCN(CC5=C(c6ccc(Cl)cc6)CC(C)(C)CC5)CC4)cc3Oc3cccc(F)c3F)cc2[N+](=O)[O-])CC1 [Example 146, N-({4-[(1-allylpiperidin-4-yl)amino]-3-nitrophenyl}sulfonyl)-4-(4-{[2-(4-chlorophenyl)-4,4-dimethylcyclohex-1-en-1-yl]methyl}piperazin-1-yl)-2-(2,3-difluorophenoxy)benzamide]	0.04
Cc1c[nH]c2cccc(Oc3cc(N4CCN(CC5=C(c6ccc(Cl)cc6)CC(C)(C)CC5)CC4)ccc3C(=O)NS(=O)(=O)c3ccc(NCCCN4CCOCC4)c([N+](=O)[O-])c3)c12 [Example 63, 4-(4-((2-(4-chlorophenyl)-4,4-dimethylcyclohex-1-en-1-yl)methyl)piperazin-1-yl)-2-((3-methyl-1H-indol-4-yl)oxy)-N-((4-((3-morpholin-4-ylpropyl)amino)-3-nitrophenyl)sulfonyl)benzamide]	0.438
CC(=O)Nc1cccc(Oc2cc(N3CCN(Cc4ccccc4-c4ccc(Cl)cc4)CC3)ccc2C(=O)NS(=O)(=O)c2ccc(NCC3CCOCC3)c([N+](=O)[O-])c2)c1 [Example 17, 2-(3-(acetylamino)phenoxy)-4-(4-((4′-chloro-1,1′-biphenyl-2-yl)methyl)piperazin-1-yl)-N-((3-nitro-4-((tetrahydro-2H-pyran-4-ylmethyl)amino)phenyl)sulfonyl)benzamide]	5.58
CC1(C)CCC(CN2CCN(c3ccc(C(=O)NS(=O)(=O)c4ccc(NC5CCOCC5)c([N+](=O)[O-])c4)c(Oc4cc5cc[nH]c5cc4F)c3)CC2)=C(c2ccc(Cl)cc2)C1 [Example 251, 4-(4-{[2-(4-chlorophenyl)-4,4-dimethylcyclohex-1-en-1-yl]methyl}piperazin-1-yl)-2-[(6-fluoro-1H-indol-5-yl)oxy]-N-{[3-nitro-4-(tetrahydro-2H-pyran-4-ylamino)phenyl]sulfonyl}benzamide]	0.435
CC1(C)CCC(CN2CCN(c3ccc(C(=O)NS(=O)(=O)c4ccc(NC5CCN(CC6CC6)CC5)c([N+](=O)[O-])c4)c(Oc4ccccc4Cl)c3)CC2)=C(c2ccc(Cl)cc2)C1 [Example 188, 2-(2-chlorophenoxy)-4-(4-{[2-(4-chlorophenyl)-4,4-dimethylcyclohex-1-en-1-yl]methyl}piperazin-1-yl)-N-[(4-{[1-(cyclopropylmethyl)piperidin-4-yl]amino}-3-nitrophenyl)sulfonyl]benzamide]	0.073
CN(C)Cc1cccc(Oc2cc(N3CCN(Cc4ccccc4-c4ccc(Cl)cc4)CC3)ccc2C(=O)NS(=O)(=O)c2ccc(NCC3CCOCC3)c([N+](=O)[O-])c2)c1 [Example 1, 4-(4-((4′-chloro-1,1′-biphenyl-2-yl)methyl)piperazin-1-yl)-2-(3-((dimethylamino)methyl)phenoxy)-N-((3-nitro-4-((tetrahydro-2H-pyran-4-ylmethyl)amino)phenyl)sulfonyl)benzamide]	8.35
CC1(C)CCC(CN2CCN(c3ccc(C(=O)NS(=O)(=O)c4ccc(NCC5CCOC5)c([N+](=O)[O-])c4)c(Oc4cc5cc[nH]c5cc4F)c3)CC2)=C(c2ccc(Cl)cc2)C1 (centres unmarked) [Example 332, 4-(4-{[2-(4-chlorophenyl)-4,4-dimethylcyclohex-1-en-1-yl]methyl}piperazin-1-yl)-2-[(6-fluoro-1H-indol-5-yl)oxy]-N-({3-nitro-4-[(tetrahydrofuran-3-ylmethyl)amino]phenyl}sulfonyl)benzamide]	0.034

Source: patent US8952157B2, “Apoptosis-inducing agents for the treatment of cancer and immune and autoimmune diseases” (AbbVie Inc., priority 2008, dated 2015)
